From patent US20230031385A1, “STORAGE MEDIA FOR PRESERVATION OF CORNEAL TISSUE” (National Health Research Institutes, priority 2021, published 2023)

How the values were obtained:
[1] = system: human corneal endothelium cells (HCECs); test: Annexin V-FITC / propidium iodide flow cytometry apoptosis assay; assay type: cell-based; details: 50 μM and 100 μM, 24 hours (FIG. 3)
Procedure: Annexin V staining is a common method for detecting apoptotic cells. The human corneal endothelium cells (HCECs) were assessed for apoptosis using flow cytometry staining with annexin-V conjugated with fluorescein isothiocyanate and propidium iodide (FIG. 3). HCECs were cultured in DMEM/F12 containing 50 μM and 100 μM ferulic acid. Briefly, HCECs were grown to confluence and incubated for 24 hours in 24-well plates using the same conditions as in the previous sets of experiments. After centrifugation and washing in cold PBS, HCECs for annexin V-FITC staining were resuspended in binding buffer (10 mM HEPES, 140 mM sodium chloride, 5 mM potassium chloride, 1 mM magnesium dichloride, 2.5 mM calcium dichloride, pH 7.4) at a concentration of 10^6 cells/ml. Five hundred microliters containing 5×10^5 cells was transferred to a culture tube, and […] of FITC-conjugated annexin V was added. Positive controls were provided for both apoptotic and necrotic (10% ethanol) cell death. For simultaneous scoring of the differential cellular response, aliquots of 10^4 cells each were immediately processed for fluorescence-activated cell sorting (FACS) on a FACS Calibur flow cytometer (Becton-Dickinson). Excitation parameters were set at λEx=488 nm, and fluorescence emission was detected at […]=518 nm for annexin V-FITC.

[2] = system: bovine corneal endothelium cells; test: TUNEL assay of AAPH induced apoptosis; assay type: cell-based; details: ferulic acid 50 μM and 100 μM, AAPH 25 mM (FIG. 4)
Procedure: Terminal deoxynucleotidyl transferase (TdT) end-labeling (TUNEL) method (DeadEnd™ Fluorometric TUNEL System, Promega, Madison, USA) was used for apoptosis analysis according to the manufacturer's instructions (FIG. 4). Briefly, bovine cornea endothelium cells were seeded on LabTek® chamber slides at a density of 1×10^4 cells/well for 24 hours, treated with 50 μM ferulic acid for 3 hours, and then reacted with 25 mM AAPH (2,2′-azobis(2-amidinopropane dihydrochloride) for 6 hours. Slides were immersed in 4% formaldehyde for fixation, cells were permeabilized with Triton® X-100. Then equilibration buffer, nucleotide mix and rTdT enzyme were added in for apoptosis cells labeling. Finally, counterstaining the nucleus with propidium iodide, and observed by fluorescence microscopy. The green fluorescence spots in FIG. 4 represents the apoptotic cells (fluorescein-12-dUTP) with a red background (propidium iodide).

With COc1cc(/C=C/C(=O)O)ccc1O [ferulic acid] the “cytotoxicity (apoptosis, annexin-V/PI)” value [1] was “no cytotoxic effect” and the “protection against AAPH induced damage (apoptosis, TUNEL)” value [2] was “prevented and/or antagonized AAPH (25 mM) induced damage”.
